{"source": "paper PMC5218480", "about": "(PLoS ONE, 2017)", "system": "MV-4-11 cells", "assay": "Gene expression microarray analysis (Affymetrix PrimeView) and GSEA", "type": "cell-based, human", "design": "RFU PODN (11730768_x_at) / Fold change /veh PODN (11730768_x_at) / RFU LINC00158 (11744669_a_at) / Fold change /veh LINC00158 (11744669_a_at) / RFU DUSP10 (11751237_a_at) / Fold change /veh DUSP10 (11751237_a_at) / RFU ID3 (11757404_x_at) / Fold change /veh ID3 (11757404_x_at) / RFU PLEKHG5 (11737974_s_at) / Fold change /veh PLEKHG5 (11737974_s_at) / RFU LRRC4B (11730491_at) / Fold change /veh LRRC4B (11730491_at) / RFU GIMAP4 (11747438_a_at) / Fold change /veh GIMAP4 (11747438_a_at) / RFU KRT8 (11758183_x_at) / Fold change /veh KRT8 (11758183_x_at) / RFU CNN1 (11734310_a_at) / Fold change /veh CNN1 (11734310_a_at) / RFU VPS37D (11726825_at) / Fold change /veh VPS37D (11726825_at) / RFU C10orf10 (11716522_x_at) / Fold change /veh C10orf10 (11716522_x_at) / RFU KIR2DL2 /// KIR2DL4 /// KIR2DL5A /// KIR2DL5B /// KIR2DS1 /// KIR2DS2 /// KIR2DS3 /// KIR2DS4 /// KIR3DL3 /// KIR3DL3 /// KIR3DS1 (11738374_at) / Fold change /veh KIR2DL2 /// KIR2DL4 /// KIR2DL5A /// KIR2DL5B /// KIR2DS1 /// KIR2DS2 /// KIR2DS3 /// KIR2DS4 /// KIR3DL3 /// KIR3DL3 /// KIR3DS1 (11738374_at) / RFU C1QL1 (11718748_at) / Fold change /veh C1QL1 (11718748_at) / RFU TMPRSS4 (11747572_a_at) / Fold change /veh TMPRSS4 (11747572_a_at) / RFU HAMP (11756126_x_at) / Fold change /veh HAMP (11756126_x_at) / RFU RNFT2 (11725882_a_at) / Fold change /veh RNFT2 (11725882_a_at) / RFU NR4A2 (11747474_a_at) / Fold change /veh NR4A2 (11747474_a_at) / RFU ABCC12 (11746883_a_at) / Fold change /veh ABCC12 (11746883_a_at) / RFU TMEM136 (11760407_x_at) / Fold change /veh TMEM136 (11760407_x_at) / RFU CLDN22 /// WWC2 (11732394_at) / Fold change /veh CLDN22 /// WWC2 (11732394_at) / RFU HLA-DPB1 (11760878_x_at) / Fold change /veh HLA-DPB1 (11760878_x_at) / RFU SPINT1 (11716480_a_at) / Fold change /veh SPINT1 (11716480_a_at) / RFU GAP43 (11754022_s_at) / Fold change /veh GAP43 (11754022_s_at) / RFU A4GNT (11735810_at) / Fold change /veh A4GNT (11735810_at) / RFU PRB3 (11715151_x_at) / Fold change /veh PRB3 (11715151_x_at) / RFU TUBB4B (11761932_at) / Fold change /veh TUBB4B (11761932_at) / RFU CAPN14 (11732068_a_at) / Fold change /veh CAPN14 (11732068_a_at) / RFU TMCC2 (11721928_a_at) / Fold change /veh TMCC2 (11721928_a_at) / RFU IRGQ (11745062_a_at) / Fold change /veh IRGQ (11745062_a_at) / RFU FAM174B (11720279_a_at) / Fold change /veh FAM174B (11720279_a_at) / RFU TMPRSS4 (11748680_a_at) / Fold change /veh TMPRSS4 (11748680_a_at) / RFU FAM212B (11763350_a_at) / Fold change /veh FAM212B (11763350_a_at) / RFU PLEKHG5 (11743358_a_at) / Fold change /veh PLEKHG5 (11743358_a_at) / RFU ZSCAN30 (11745921_a_at) / Fold change /veh ZSCAN30 (11745921_a_at) / RFU CMKLR1 (11741424_a_at) / Fold change /veh CMKLR1 (11741424_a_at) / RFU LOC101060620 /// MAPK8IP1 (11723275_at) / Fold change /veh LOC101060620 /// MAPK8IP1 (11723275_at) / RFU SPTSSB (11747773_x_at) / Fold change /veh SPTSSB (11747773_x_at) / RFU PRSS12 (11739890_at) / Fold change /veh PRSS12 (11739890_at) / RFU BIN1 (11741810_x_at) / Fold change /veh BIN1 (11741810_x_at) / RFU WNT11 (11732464_a_at) / Fold change /veh WNT11 (11732464_a_at) / RFU C10orf10 (11716521_a_at) / Fold change /veh C10orf10 (11716521_a_at) / RFU C5orf56 (11738089_at) / Fold change /veh C5orf56 (11738089_at) / RFU CYB561 (11721691_x_at) / Fold change /veh CYB561 (11721691_x_at) / RFU ANKRD19P (11752326_a_at) / Fold change /veh ANKRD19P (11752326_a_at) / RFU OR2T12 /// OR2T33 /// OR2T8 (11738714_s_at) / Fold change /veh OR2T12 /// OR2T33 /// OR2T8 (11738714_s_at) / RFU VCAN (11748164_a_at) / Fold change /veh VCAN (11748164_a_at) / RFU JSRP1 (11732532_at) / Fold change /veh JSRP1 (11732532_at) / RFU KRTAP10-11 (11738290_x_at) / Fold change /veh KRTAP10-11 (11738290_x_at) / RFU MYO3A (11730013_a_at) / Fold change /veh MYO3A (11730013_a_at) / RFU EBF3 (11725865_a_at) / Fold change /veh EBF3 (11725865_a_at) / RFU CAMK2N1 (11719241_x_at) / Fold change /veh CAMK2N1 (11719241_x_at) / RFU C5orf56 (11738088_a_at) / Fold change /veh C5orf56 (11738088_a_at) / RFU OLFML3 (11715873_a_at) / Fold change /veh OLFML3 (11715873_a_at) / RFU LOC100653217 /// NTM (11731650_a_at) / Fold change /veh LOC100653217 /// NTM (11731650_a_at) / RFU MAPK11 (11762145_a_at) / Fold change /veh MAPK11 (11762145_a_at) / RFU FIZ1 (11724087_x_at) / Fold change /veh FIZ1 (11724087_x_at) / RFU OASL (11726364_x_at) / Fold change /veh OASL (11726364_x_at) / RFU SOX15 (11748057_x_at) / Fold change /veh SOX15 (11748057_x_at) / RFU CD79A (11719716_a_at) / Fold change /veh CD79A (11719716_a_at) / RFU HIST1H1D (11736915_at) / Fold change /veh HIST1H1D (11736915_at) / RFU CASKIN2 (11723855_a_at) / Fold change /veh CASKIN2 (11723855_a_at) / RFU LOC730098 (11760151_x_at) / Fold change /veh LOC730098 (11760151_x_at) / RFU OR4N2 (11742367_at) / Fold change /veh OR4N2 (11742367_at) / RFU PRRT2 (11749266_a_at) / Fold change /veh PRRT2 (11749266_a_at) / RFU SNX32 (11753110_a_at) / Fold change /veh SNX32 (11753110_a_at) / RFU CDHR5 (11726645_a_at) / Fold change /veh CDHR5 (11726645_a_at) / RFU RCAN1 (11760418_a_at) / Fold change /veh RCAN1 (11760418_a_at) / RFU FAM167A (11723789_a_at) / Fold change /veh FAM167A (11723789_a_at) / RFU FAM26E (11764081_at) / Fold change /veh FAM26E (11764081_at) / RFU ISYNA1 (11749810_s_at) / Fold change /veh ISYNA1 (11749810_s_at) / RFU ACY1 (11761880_at) / Fold change /veh ACY1 (11761880_at) / RFU 11764098_at / Fold change /veh 11764098_at / RFU SAMD14 (11745864_x_at) / Fold change /veh SAMD14 (11745864_x_at) / RFU NPB (11741838_a_at) / Fold change /veh NPB (11741838_a_at) / RFU TMPRSS6 (11731388_a_at) / Fold change /veh TMPRSS6 (11731388_a_at) / RFU KRTAP10-2 (11738614_at) / Fold change /veh KRTAP10-2 (11738614_at) / RFU ARHGAP8 /// PRR5-ARHGAP8 (11727945_x_at) / Fold change /veh ARHGAP8 /// PRR5-ARHGAP8 (11727945_x_at) / RFU KRTAP5-7 /// NADSYN1 (11734609_at) / Fold change /veh KRTAP5-7 /// NADSYN1 (11734609_at) / RFU RASL12 (11751679_a_at) / Fold change /veh RASL12 (11751679_a_at) / RFU CDKN2B (11736163_a_at) / Fold change /veh CDKN2B (11736163_a_at) / RFU PRF1 (11729649_at) / Fold change /veh PRF1 (11729649_at) / RFU, ZNF638 /// ZNF638-IT1 / Fold change vs veh, ZNF638 /// ZNF638-IT1 / RFU, PANK3 / Fold change vs veh, PANK3 / RFU, SH3YL1 / Fold change vs veh, SH3YL1 / RFU, ZEB2 / Fold change vs veh, ZEB2 / RFU, NRIP1 / Fold change vs veh, NRIP1 / RFU, PTTG1IP / Fold change vs veh, PTTG1IP / RFU, CAPN2 / Fold change vs veh, CAPN2 / RFU, MED14 / Fold change vs veh, MED14 / RFU, SNORA58 / Fold change vs veh, SNORA58 / RFU, C1orf63 / Fold change vs veh, C1orf63 / RFU, LRRFIP1 / Fold change vs veh, LRRFIP1 / RFU, NDUFAF7 / Fold change vs veh, NDUFAF7 / RFU, SLC12A2 / Fold change vs veh, SLC12A2 / RFU, IBTK / Fold change vs veh, IBTK / RFU, ESF1 / Fold change vs veh, ESF1 / Fold change vs veh, TMEM50B / RFU, TAOK1 / Fold change vs veh, TAOK1 / RFU, ACBD3 / Fold change vs veh, ACBD3 / RFU, TMA16 / Fold change vs veh, TMA16 / RFU, RWDD3 / Fold change vs veh, RWDD3 / RFU, BCAT1 / Fold change vs veh, BCAT1 / RFU, EDEM3 / Fold change vs veh, EDEM3 / RFU, TMEM33 / Fold change vs veh, TMEM33 / RFU, WDR75 / Fold change vs veh, WDR75 / RFU, AHCTF1 / Fold change vs veh, AHCTF1 / RFU, TFRC / Fold change vs veh, TFRC / RFU, ZDHHC17 / Fold change vs veh, ZDHHC17 / RFU, NOM1 / Fold change vs veh, NOM1 / RFU, ARL8B / Fold change vs veh, ARL8B / RFU, ZBTB11 / Fold change vs veh, ZBTB11 / RFU, TAMM41 / Fold change vs veh, TAMM41 / RFU, KIAA1704 /// LOC100996395 / Fold change vs veh, KIAA1704 /// LOC100996395 / RFU, ING1 / Fold change vs veh, ING1 / RFU, TRMT61B / Fold change vs veh, TRMT61B / RFU, FUBP3 / Fold change vs veh, FUBP3 / RFU, TP53 / Fold change vs veh, TP53 / RFU, TNKS2 / Fold change vs veh, TNKS2 / RFU, ZFP14 / Fold change vs veh, ZFP14 / RFU, ACTR2 / Fold change vs veh, ACTR2 / RFU, PPP3R1 / Fold change vs veh, PPP3R1 / RFU, PIK3R1 / Fold change vs veh, PIK3R1 / RFU, HNRNPA1 / Fold change vs veh, HNRNPA1 / RFU, RNF170 / Fold change vs veh, RNF170 / RFU, ZNF28 / Fold change vs veh, ZNF28 / RFU, RNGTT / Fold change vs veh, RNGTT / RFU, OGT / Fold change vs veh, OGT / RFU, BRD1 / Fold change vs veh, BRD1 / RFU, MARS / Fold change vs veh, MARS / RFU, ZNF655 / Fold change vs veh, ZNF655 / RFU, FAHD1 / Fold change vs veh, FAHD1 / RFU, BDP1 / Fold change vs veh, BDP1 / RFU, LRRCC1 / Fold change vs veh, LRRCC1 / RFU, ARID1A / Fold change vs veh, ARID1A / RFU, ZNF146 / Fold change vs veh, ZNF146 / RFU, ZNF330 / Fold change vs veh, ZNF330 / RFU, GPN3 / Fold change vs veh, GPN3 / RFU, C9orf123 / Fold change vs veh, C9orf123 / RFU, N4BP2L2 / Fold change vs veh, N4BP2L2 / RFU, ARFIP1 / Fold change vs veh, ARFIP1 / RFU, FAM179B / Fold change vs veh, FAM179B / RFU, BCL10 / Fold change vs veh, BCL10 / RFU, UHRF1BP1L / Fold change vs veh, UHRF1BP1L / RFU, BET1 / Fold change vs veh, BET1 / RFU, CNOT2 / Fold change vs veh, CNOT2 / RFU, ZNF268 / Fold change vs veh, ZNF268 / Fold change vs veh, ZNF507 / RFU, DGCR2 / Fold change vs veh, DGCR2 / RFU, WDSUB1 / Fold change vs veh, WDSUB1 / Fold change vs veh, HSP90B1 /// MIR3652 / RFU, ADSS / Fold change vs veh, ADSS / RFU, GK / Fold change vs veh, GK / RFU, ZNF148 / Fold change vs veh, ZNF148 / RFU, TAF9 / Fold change vs veh, TAF9 / RFU, SLC1A5 / Fold change vs veh, SLC1A5 / RFU, SLMO2 / Fold change vs veh, SLMO2 / RFU, ABCC4 / Fold change vs veh, ABCC4 / RFU, LOC101060439 /// RAP1B / Fold change vs veh, LOC101060439 /// RAP1B / RFU, RFX7 / Fold change vs veh, RFX7 / RFU, GTPBP10 / Fold change vs veh, GTPBP10 / RFU, CNEP1R1 / Fold change vs veh, CNEP1R1 / RFU, BIVM-ERCC5 /// ERCC5 / Fold change vs veh, BIVM-ERCC5 /// ERCC5 / RFU, ILF3 / Fold change vs veh, ILF3 / RFU 11762660_at / Fold change /veh 11762660_at / RFU VCAN (11757783_s_at) / Fold change /veh VCAN (11757783_s_at) / RFU DDX43 (11728927_at) / Fold change /veh DDX43 (11728927_at) / RFU KRT8 (11758188_x_at) / Fold change /veh KRT8 (11758188_x_at) / RFU NKD1 (11759106_at) / Fold change /veh NKD1 (11759106_at) / RFU SRD5A1 (11742802_a_at) / Fold change /veh SRD5A1 (11742802_a_at) / RFU TPSAB1 /// TPSB2 (11721975_s_at) / Fold change /veh TPSAB1 /// TPSB2 (11721975_s_at) / RFU GSTM3 (11746129_a_at) / Fold change /veh GSTM3 (11746129_a_at) / RFU IL23R (11737362_x_at) / Fold change /veh IL23R (11737362_x_at) / RFU TMEM51 (11727254_a_at) / Fold change /veh TMEM51 (11727254_a_at) / RFU PIWIL2 (11732686_x_at) / Fold change /veh PIWIL2 (11732686_x_at) / RFU ORM1 (11744905_x_at) / Fold change /veh ORM1 (11744905_x_at) / RFU CCDC152 (11743942_at) / Fold change /veh CCDC152 (11743942_at) / RFU ECM1 (11717891_a_at) / Fold change /veh ECM1 (11717891_a_at) / RFU IL23R (11748794_a_at) / Fold change /veh IL23R (11748794_a_at) / RFU TNFAIP8L3 (11732012_x_at) / Fold change /veh TNFAIP8L3 (11732012_x_at) / RFU MBOAT4 (11741988_at) / Fold change /veh MBOAT4 (11741988_at) / RFU 11764193_at / Fold change /veh 11764193_at / RFU TMEM53 (11763286_at) / Fold change /veh TMEM53 (11763286_at) / RFU MAGEB2 (11727129_at) / Fold change /veh MAGEB2 (11727129_at) / RFU TMEM200A (11744735_a_at) / Fold change /veh TMEM200A (11744735_a_at) / RFU CCDC152 (11751479_a_at) / Fold change /veh CCDC152 (11751479_a_at) / RFU FAM211A (11726209_a_at) / Fold change /veh FAM211A (11726209_a_at) / RFU RGS16 (11746705_a_at) / Fold change /veh RGS16 (11746705_a_at) / RFU VCAN (11755009_s_at) / Fold change /veh VCAN (11755009_s_at) / RFU RHOB (11743442_s_at) / Fold change /veh RHOB (11743442_s_at) / RFU RGS16 (11720943_a_at) / Fold change /veh RGS16 (11720943_a_at) / RFU RGS16 (11720944_at) / Fold change /veh RGS16 (11720944_at) / RFU, VPS4B / Fold change vs veh, VPS4B / RFU, CREB1 / Fold change vs veh, CREB1 / RFU, DNAJC13 / Fold change vs veh, DNAJC13 / RFU, GNAQ / Fold change vs veh, GNAQ / RFU, CDK5R1 / Fold change vs veh, CDK5R1 / RFU, ZRANB3 / Fold change vs veh, ZRANB3 / RFU, CUL4A / Fold change vs veh, CUL4A / RFU, CCNY / Fold change vs veh, CCNY / RFU, UFL1 / Fold change vs veh, UFL1 / RFU, COG3 / Fold change vs veh, COG3 / RFU, DIAPH2 / Fold change vs veh, DIAPH2 / RFU, SKA2 / Fold change vs veh, SKA2 / RFU, AFF3 / Fold change vs veh, AFF3 / RFU, LMF1 / Fold change vs veh, LMF1 / RFU, IPO11 / Fold change vs veh, IPO11 / RFU, DFFB / Fold change vs veh, DFFB / RFU, FOXP1 / Fold change vs veh, FOXP1 / RFU, CARD8 / Fold change vs veh, CARD8 / RFU, STRN3 / Fold change vs veh, STRN3 / RFU, ADK / Fold change vs veh, ADK / RFU, RASSF2 / Fold change vs veh, RASSF2 / RFU, WIPF1 / Fold change vs veh, WIPF1 / RFU, LARP1B / Fold change vs veh, LARP1B / RFU, RASA1 / Fold change vs veh, RASA1 / RFU, RB1 / Fold change vs veh, RB1 / RFU, PPFIA1 / Fold change vs veh, PPFIA1 / RFU, MAT2A / Fold change vs veh, MAT2A / RFU, CCT5 / Fold change vs veh, CCT5 / RFU, WDR92 / Fold change vs veh, WDR92 / RFU, CUX1 / Fold change vs veh, CUX1 / RFU, TTC7A / Fold change vs veh, TTC7A / RFU, TMEM135 / Fold change vs veh, TMEM135 / RFU, DEPTOR / Fold change vs veh, DEPTOR / RFU, CPM / Fold change vs veh, CPM / RFU, DNAJB6 / Fold change vs veh, DNAJB6 / RFU, CACNA2D3 / Fold change vs veh, CACNA2D3 / RFU, DTX4 / Fold change vs veh, DTX4 / RFU, TFCP2 / Fold change vs veh, TFCP2 / RFU, GMCL1 /// GMCL1P1 / Fold change vs veh, GMCL1 /// GMCL1P1 / RFU, AEBP2 / Fold change vs veh, AEBP2 / RFU, SNHG1 /// SNORD22 /// SNORD25 /// SNORD26 /// SNORD27 /// SNORD28 /// SNORD29 /// SNORD31 / Fold change vs veh, SNHG1 /// SNORD22 /// SNORD25 /// SNORD26 /// SNORD27 /// SNORD28 /// SNORD29 /// SNORD31 / Fold change (Aza/veh), C12orf56 (ProbeSet 11735607_a_at) / Fold change (ACY-1035/veh), C12orf56 (ProbeSet 11735607_a_at) / Fold change (Aza/veh), FGFR1OP (ProbeSet 11751329_s_at) / Fold change (ACY-1035/veh), FGFR1OP (ProbeSet 11751329_s_at) / Fold change (Aza/veh), VPS36 (ProbeSet 11739960_a_at) / Fold change (ACY-1035/veh), VPS36 (ProbeSet 11739960_a_at) / RFU SYPL1 (11715823_x_at) / Fold change /veh SYPL1 (11715823_x_at) / RFU IGFBP7 (11715501_s_at) / Fold change /veh IGFBP7 (11715501_s_at) / RFU REEP3 (11722064_at) / Fold change /veh REEP3 (11722064_at) / RFU IGLL1 (11728026_x_at) / Fold change /veh IGLL1 (11728026_x_at): dose or concentration left out as unconfirmed", "details": "ProbeSet 11749477_a_at; LIST B"}
{"molecule": "Nc1ccc(-c2cccs2)cc1NC(=O)c1ccc2c(c1)cc(C1CC1)n2CCN1CCOCC1", "note": "[ACY-1035]", "values": [{"measurement": "RFU, EDEM3", "value": 51.94, "unit": "RFU"}]}
